Measured values as given in ChEMBL document CHEMBL1201862, “PubChem BioAssay data set” (2004).
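Cultured in 96-well plates, cells were exposed to test compound for 48 hours across five concentrations. Abbreviation: GI50, concentration required for 50% inhibition of growth.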 Calls of active or inactive are those of the source. Rule as the data show it: active = GI50 up to about 1.1 µM and inactive = higher.

Legend:
Assay in all cases: DTP human tumour cell line panel, 48 h
[1] = tested on: BT-549
[2] = tested on: HT-29
[3] = tested on: IGROV-1
[4] = tested on: M14
[5] = tested on: MDA-MB-231
[6] = tested on: MDA-N
[7] = tested on: OVCAR-5
[8] = tested on: RXF 393
[9] = tested on: SF-268
[10] = tested on: SF-539
[11] = tested on: SK-MEL-28
[12] = tested on: SK-OV-3
[13] = tested on: SNB-75
[14] = tested on: SR
[15] = tested on: T47D
[16] = tested on: TK-10
[17] = tested on: U-251
[18] = tested on: UACC-62
[19] = tested on: NCI-H522
[20] = tested on: UO-31

SMILES | GI50 [1] | GI50 [2] | GI50 [3] | GI50 [4] | GI50 [5] | GI50 [6] | GI50 [7] | GI50 [8] | GI50 [9] | GI50 [10] | GI50 [11] | GI50 [12] | GI50 [13] | GI50 [14] | GI50 [15] | GI50 [16] | GI50 [17] | GI50 [18] | GI50 [19] | GI50 [20]
CCOC(=O)COc1cc(-c2ccccc2)nc2cc(F)ccc12 | > 100 µM (inactive) | > 100 µM (inactive) | > 100 µM (inactive) | > 100 µM (inactive) | > 100 µM (inactive) | > 100 µM (inactive) | > 100 µM (inactive) | > 100 µM (inactive) | > 100 µM (inactive) | 39.7 µM (inactive) | > 100 µM (inactive) | > 100 µM (inactive) | > 100 µM (inactive) | > 100 µM (inactive) | > 100 µM (inactive) | > 100 µM (inactive) | > 100 µM (inactive) | > 100 µM (inactive) | – | –
Cc1ccc(S(=O)(=O)N2C[C@@H]3CC[C@]4(CO[Si](C)(C)C(C)(C)C)N[C@@H](c5ccccc5)[C@H]2[C@H]34)cc1 | 20.4 µM (inactive) | 13.2 µM (inactive) | 31.3 µM (inactive) | 61.7 µM (inactive) | 28.1 µM (inactive) | 29.2 µM (inactive) | 77.8 µM (inactive) | 14.5 µM (inactive) | 45.7 µM (inactive) | 32.4 µM (inactive) | > 100 µM (inactive) | 68.1 µM (inactive) | – | 16.2 µM (inactive) | 8.18 µM (inactive) | 38.5 µM (inactive) | 46.5 µM (inactive) | 56.4 µM (inactive) | 11.6 µM (inactive) | 33 µM (inactive)
C/C=C(/C)c1cnc(CC(C)C)c(=O)[nH]1 | > 100 µM (inactive) | > 100 µM (inactive) | > 100 µM (inactive) | – | > 100 µM (inactive) | > 100 µM (inactive) | > 100 µM (inactive) | > 100 µM (inactive) | > 100 µM (inactive) | – | > 100 µM (inactive) | > 100 µM (inactive) | > 100 µM (inactive) | > 100 µM (inactive) | > 100 µM (inactive) | > 100 µM (inactive) | > 100 µM (inactive) | > 100 µM (inactive) | – | > 100 µM (inactive)
COc1ccc(-n2c3c(c4cc(O)ccc42)C(=O)c2ccccc2C3=O)cc1 | 11.2 µM (inactive) | 3.94 µM (inactive) | 3.79 µM (inactive) | > 100 µM (inactive) | 2 µM (inactive) | > 100 µM (inactive) | 6.04 µM (inactive) | 2.84 µM (inactive) | 2.14 µM (inactive) | 1.05 µM (active) | 3.08 µM (inactive) | 0.404 µM (active) | – | 10.4 µM (inactive) | 8.24 µM (inactive) | 8.55 µM (inactive) | 0.931 µM (active) | 3.5 µM (inactive) | 16.6 µM (inactive) | 14.7 µM (inactive)
Cc1cn(CC(=S)NCCc2c[nH]c3ccccc23)c(=O)[nH]c1=O | > 100 µM (inactive) | 31.4 µM (inactive) | > 100 µM (inactive) | > 100 µM (inactive) | > 100 µM (inactive) | 48 µM (inactive) | 33 µM (inactive) | > 100 µM (inactive) | > 100 µM (inactive) | > 100 µM (inactive) | > 100 µM (inactive) | > 100 µM (inactive) | – | 28.1 µM (inactive) | 34.5 µM (inactive) | – | > 100 µM (inactive) | 70 µM (inactive) | – | 87.1 µM (inactive)
O=C1c2ccccc2C2(c3ccc(Cl)cc3)NCc3ccccc3CN12 (stereo not given) | 43.1 µM (inactive) | 15.2 µM (inactive) | 24.2 µM (inactive) | 18 µM (inactive) | 57.4 µM (inactive) | 56 µM (inactive) | 21.7 µM (inactive) | 16.1 µM (inactive) | 35.1 µM (inactive) | 16.3 µM (inactive) | 25.2 µM (inactive) | 31.2 µM (inactive) | 52.8 µM (inactive) | 24.7 µM (inactive) | 16.4 µM (inactive) | 31.3 µM (inactive) | 28.6 µM (inactive) | 17.3 µM (inactive) | – | 22.5 µM (inactive)
Clc1cccc(Cl)c1C1SCC2=Nc3ccccc3CN21 (stereo not given) | 66.4 µM (inactive) | – | 22.9 µM (inactive) | 18.4 µM (inactive) | 42.9 µM (inactive) | 36.8 µM (inactive) | 41.5 µM (inactive) | 27.8 µM (inactive) | 39.9 µM (inactive) | 16.2 µM (inactive) | 23.3 µM (inactive) | 20.6 µM (inactive) | 38.3 µM (inactive) | 34.1 µM (inactive) | 21.4 µM (inactive) | > 100 µM (inactive) | 33.2 µM (inactive) | 27.4 µM (inactive) | – | 17.3 µM (inactive)
O=S(=O)(c1ccccc1)C1(CCC2OCCO2)C=CC2(CC1)OCCO2 (stereo not given) | > 100 µM (inactive) | > 100 µM (inactive) | > 100 µM (inactive) | > 100 µM (inactive) | > 100 µM (inactive) | > 100 µM (inactive) | > 100 µM (inactive) | – | > 100 µM (inactive) | – | > 100 µM (inactive) | > 100 µM (inactive) | > 100 µM (inactive) | > 100 µM (inactive) | > 100 µM (inactive) | > 100 µM (inactive) | > 100 µM (inactive) | > 100 µM (inactive) | – | > 100 µM (inactive)
Cc1c(Cl)cccc1/N=N/C(=O)NNc1cccc(Cl)c1C | 14.1 µM (inactive) | 20.4 µM (inactive) | 6.37 µM (inactive) | 19.2 µM (inactive) | 17.8 µM (inactive) | 17.2 µM (inactive) | 14.1 µM (inactive) | – | 16.9 µM (inactive) | – | 16.6 µM (inactive) | – | 18 µM (inactive) | 21.3 µM (inactive) | 10.7 µM (inactive) | 15.8 µM (inactive) | 16.2 µM (inactive) | 11.9 µM (inactive) | 23.1 µM (inactive) | 12.5 µM (inactive)
COc1cc(/C=N/c2ccc(Oc3ccc(Cl)cc3)c(Cl)c2)cc(OC)c1OC | 15.9 µM (inactive) | 22.2 µM (inactive) | 21.8 µM (inactive) | 23.3 µM (inactive) | 16.8 µM (inactive) | 22.6 µM (inactive) | 34.7 µM (inactive) | – | 12.4 µM (inactive) | 16.4 µM (inactive) | 21.3 µM (inactive) | > 10 µM (inactive) | 23.7 µM (inactive) | 26.9 µM (inactive) | 3.53 µM (inactive) | 32.9 µM (inactive) | 18.2 µM (inactive) | 15.3 µM (inactive) | 12.3 µM (inactive) | 11 µM (inactive)
Nc1ncc(C=O)c(NCC2(CO)CCC2)n1 | > 10 µM (inactive) | 64 µM (inactive) | 41.5 µM (inactive) | – | 45.8 µM (inactive) | > 100 µM (inactive) | 44.8 µM (inactive) | 28.4 µM (inactive) | 87.9 µM (inactive) | 39.7 µM (inactive) | – | – | 66.1 µM (inactive) | 18 µM (inactive) | 14.8 µM (inactive) | 15.4 µM (inactive) | 35.6 µM (inactive) | 12.3 µM (inactive) | 35.6 µM (inactive) | 27.5 µM (inactive)
CCNCC(O)c1ccc(N)c([N+](=O)[O-])c1 (stereo not given) | > 100 µM (inactive) | > 100 µM (inactive) | > 100 µM (inactive) | > 100 µM (inactive) | > 100 µM (inactive) | > 100 µM (inactive) | > 100 µM (inactive) | – | > 100 µM (inactive) | > 100 µM (inactive) | > 100 µM (inactive) | > 100 µM (inactive) | > 100 µM (inactive) | > 100 µM (inactive) | > 100 µM (inactive) | > 100 µM (inactive) | > 100 µM (inactive) | > 100 µM (inactive) | > 100 µM (inactive) | > 100 µM (inactive)
CCOC(=O)CCC(NC(=O)C(N)c1ccc([N+](=O)[O-])cc1)C(=O)NC(CCC(=O)OCC)C(=O)OCC (stereo not given) | > 100 µM (inactive) | > 100 µM (inactive) | > 100 µM (inactive) | > 100 µM (inactive) | > 100 µM (inactive) | > 100 µM (inactive) | > 100 µM (inactive) | – | – | – | > 100 µM (inactive) | – | > 100 µM (inactive) | > 100 µM (inactive) | 35.6 µM (inactive) | > 100 µM (inactive) | > 100 µM (inactive) | > 100 µM (inactive) | – | > 100 µM (inactive)
N=c1oc2ccc(Cl)cc2cc1C(=O)NC1CCCCC1 | > 100 µM (inactive) | > 100 µM (inactive) | 41 µM (inactive) | > 100 µM (inactive) | > 100 µM (inactive) | 88.5 µM (inactive) | > 100 µM (inactive) | > 100 µM (inactive) | > 100 µM (inactive) | 81.8 µM (inactive) | 98.6 µM (inactive) | > 100 µM (inactive) | 84.5 µM (inactive) | 51.5 µM (inactive) | 66.2 µM (inactive) | – | > 100 µM (inactive) | 59.2 µM (inactive) | – | –
CC1(C)CC(=O)c2c(nc3ccc4ccccc4c3c2-c2ccc(NC(=O)CCCCCCCCC(=O)Nc3ccc(-c4c5c(nc6ccc7ccccc7c46)CC(C)(C)CC5=O)cc3)cc2)C1 | > 100 µM (inactive) | > 100 µM (inactive) | > 100 µM (inactive) | > 100 µM (inactive) | > 100 µM (inactive) | > 100 µM (inactive) | > 100 µM (inactive) | – | > 100 µM (inactive) | > 100 µM (inactive) | > 100 µM (inactive) | > 100 µM (inactive) | – | > 100 µM (inactive) | > 100 µM (inactive) | > 100 µM (inactive) | > 100 µM (inactive) | > 100 µM (inactive) | – | > 100 µM (inactive)
